Laboratory results published in PMC6934184, “Selective DNA-PKcs inhibition extends the therapeutic index of localized radiotherapy and chemotherapy” (The Journal of Clinical Investigation, 2019).

Target: T1, LRRK2 (Homo sapiens, UniProt Q5S007)
T1 construct: purchased Thermo Fisher Scientific (Life Technologies) SelectScreen
Assay: SelectScreen Adapta
Assay type: biochemical
Procedure: The in vitro kinase selectivity of NU5455 was determined using the SelectScreen Broad Assay Panel (Thermo Fisher Scientific) involving activity and binding assays (Supplemental Table 1). […] Class IA PI3Ks were measured using the p85α subunit.
Kinase [ATP] % Assay Kinase [ATP] % Assay Kinase [ATP] % Assay Kinase [ATP] % Assay
DNA-PK Km app 98.3 Z LATS2 n/a 4.7 L KIT D820E n/a 1.3 L GSK3B (GSK3 beta) Km app -2.5 Z
PIK3C3 (hVPS34) Km app 85.9 A PRKCZ (PKC zeta) Km app 4.7 Z GRK1 n/a 1.3 L BMPR2 n/a -2.5 L
PIK3C2B (PI3K-C2 beta) 10 28.9 A FGFR1 Km app 4.7 Z BRSK2 n/a 1.2 L CDC42 BPB (MRCKB) Km app -2.5 Z
SNF1LK2 Km app 26.6 Z MINK1 Km app 4.6 Z NUAK1 (ARK5) Km app 1.2 A AMPK (A2/B2/G2) n/a -2.6 L
HCK Km app 18.0 Z CSF1R (FMS) Km app 4.3 Z CDK9/cyclin K n/a 1.0 L PRKG1 Km app -2.7 Z
NEK2 Km app 17.8 Z CSNK1G3 (CK1 gamma 3) Km app 4.2 Z NUAK2 n/a 1.0 L KIT T670E n/a -2.8 L
ALK Km app 17.3 Z STK32C (YANK3) n/a 4.2 L CDK2/cyclin O n/a 0.9 L ERBB4 (HER4) Km app -2.8 Z
FGFR3 K650M n/a 16.5 L STK22D (TSSK1) Km app 4.2 Z CAMKK2 (CaMKK beta) n/a 0.9 L PLK4 n/a -2.8 L
SIK3 n/a 16.1 L TAOK3 (JIK) n/a 4.2 L FGFR3 Km app 0.9 Z GRK7 Km app -3.0 Z
LYN A Km app 15.2 Z RPS6KA4 (MSK2) Km app 4.2 Z ULK2 n/a 0.9 L MAPKAPK2 Km app -3.1 Z
BMPR1B (ALK6) n/a 14.5 L PTK2B (FAK2) Km app 4.2 Z KIT D816V n/a 0.9 L FGFR4 Km app -3.1 Z
INSRR (IRR) Km app 14.1 Z CLK2 Km app 4.1 Z CAMK1 (CaMK1) 10 0.8 A CASK n/a -3.1 L
PLK2 Km app 14.1 Z STK24 (MST3) Km app 4.1 Z PTK6 (Brk) Km app 0.7 Z GRK5 Km app -3.2 Z
PRKACA (PKA) Km app 14.0 Z CAMK1D (CaMKI delta) Km app 4.1 Z CAMK2B (CaMKII beta) Km app 0.7 Z EGFR (ErbB1) T790M Km app -3.3 Z
EIF2AK2 (PKR) n/a 13.3 L INSR Km app 4.1 Z ACVR1 (ALK2) n/a 0.7 L PAK4 Km app -3.3 Z
PRKX Km app 12.5 Z IRAK1 Km app 4.0 A ABL1 H396P n/a 0.6 L DAPK3 (ZIPK) Km app -3.4 Z
FGR Km app 12.1 Z SRC N1 Km app 3.9 Z MERTK (cMER) A708S n/a 0.6 L RET M918T n/a -3.5 L
CLK1 Km app 11.7 Z SRPK2 Km app 3.9 Z MAPKAPK5 (PRAK) Km app 0.6 Z PRKCQ (PKC theta) Km app -3.7 Z
MARK3 Km app 11.4 Z RPS6KA6 (RSK4) Km app 3.8 Z AKT1 (PKB alpha) Km app 0.5 Z CAMKK1 (CAMKKA) n/a -3.8 L
PDGFRB (PDGFR beta) Km app 11.0 Z GRK6 Km app 3.7 Z NTRK3 (TRKC) Km app 0.4 Z FLT3 D835Y Km app -3.9 Z
PRKCN (PKD3) Km app 10.7 Z PKN1 (PRK1) Km app 3.6 Z ZAP70 Km app 0.3 Z ROCK2 Km app -4.1 Z
STK16 (PKL12) n/a 10.5 L MAP3K8 (COT) 100 3.5 Z CSNK1A1 (CK1 alpha 1) Km app 0.3 Z CHUK (IKK alpha) Km app -4.2 A
FES (FPS) Km app 10.4 Z FLT4 (VEGFR3) Km app 3.5 Z MYLK (MLCK) n/a 0.2 L AXL Km app -4.2 Z
ABL1 Km app 10.4 Z GRK4 Km app 3.5 Z MKNK2 (MNK2) n/a 0.2 L PIM2 Km app -4.3 Z
MUSK Km app 10.3 Z FRK (PTK5) Km app 3.4 Z AMPK (A1/B1/G3) n/a 0.2 L PAK1 Km app -4.4 Z
MAPK1 (ERK2) Km app 10.1 Z FYN A n/a 3.3 L MAP3K2 (MEKK2) n/a 0.1 L BMPR1A (ALK3) n/a -4.4 L
BRAF 100 9.9 Z CDK1/cyclin A2 n/a 3.3 L CDK8/cyclin C n/a 0.1 L STK4 (MST1) Km app -4.4 Z
IGF1R Km app 9.7 Z KIT V559D T670I n/a 3.1 L MARK2 Km app 0.1 Z PRKCH (PKC eta) Km app -4.6 Z
MAPK14 (p38 alpha) Km app 9.7 Z SPHK2 10 3.1 A ICK n/a 0.0 L SGKL (SGK3) Km app -4.6 Z
LCK Km app 9.6 Z FGFR3 G697C n/a 3.1 L FGFR2 Km app 0.0 Z PI4KB (PI4K beta) Km app -4.7 A
MAPK11 (p38 beta) Km app 9.5 Z RIPK2 n/a 3.1 L AKT2 (PKB beta) Km app 0.0 Z PRKCE (PKC epsilon) Km app -4.9 Z
SRC Km app 9.5 Z PAK6 Km app 3.0 Z EPHB2 Km app -0.1 Z PHKG1 Km app -5.0 Z
CHEK1 (CHK1) Km app 9.3 Z LYN B Km app 3.0 Z TGFBR2 n/a -0.1 L PDGFRA D842V Km app -5.0 Z
CAMK2D (CaMKII delta) Km app 9.3 Z DAPK2 n/a 2.9 L TEK (Tie2) Km app -0.1 Z PRKG2 (PKG2) Km app -5.1 Z
PLK1 Km app 9.2 Z EPHA4 Km app 2.9 Z AURKA (Aurora A) Km app -0.1 Z TYRO3 (RSE) Km app -5.1 Z
RET Y791F Km app 9.2 Z PIK3CG (p110 gamma) Km app 2.9 A KIT D816H n/a -0.2 L TAOK2 (TAO1) Km app -5.1 Z
FLT3 Km app 9.1 Z HIPK1 (Myak) Km app 2.8 Z KIT N822K n/a -0.2 L EPHB4 Km app -5.3 Z
MAPK10 (JNK3) 100 9.0 Z ADRBK2 (GRK3) Km app 2.8 Z PRKACG (PRKAC gamma) n/a -0.2 L AURKC (Aurora C) Km app -5.4 Z
CSNK2A2 (CK2 alpha 2) Km app 8.7 Z STK17B (DRAK2) n/a 2.7 L TEK (TIE2) Y1108F n/a -0.3 L JAK1 Km app -5.7 Z […]

T1 sequence (Q5S007 whole entry): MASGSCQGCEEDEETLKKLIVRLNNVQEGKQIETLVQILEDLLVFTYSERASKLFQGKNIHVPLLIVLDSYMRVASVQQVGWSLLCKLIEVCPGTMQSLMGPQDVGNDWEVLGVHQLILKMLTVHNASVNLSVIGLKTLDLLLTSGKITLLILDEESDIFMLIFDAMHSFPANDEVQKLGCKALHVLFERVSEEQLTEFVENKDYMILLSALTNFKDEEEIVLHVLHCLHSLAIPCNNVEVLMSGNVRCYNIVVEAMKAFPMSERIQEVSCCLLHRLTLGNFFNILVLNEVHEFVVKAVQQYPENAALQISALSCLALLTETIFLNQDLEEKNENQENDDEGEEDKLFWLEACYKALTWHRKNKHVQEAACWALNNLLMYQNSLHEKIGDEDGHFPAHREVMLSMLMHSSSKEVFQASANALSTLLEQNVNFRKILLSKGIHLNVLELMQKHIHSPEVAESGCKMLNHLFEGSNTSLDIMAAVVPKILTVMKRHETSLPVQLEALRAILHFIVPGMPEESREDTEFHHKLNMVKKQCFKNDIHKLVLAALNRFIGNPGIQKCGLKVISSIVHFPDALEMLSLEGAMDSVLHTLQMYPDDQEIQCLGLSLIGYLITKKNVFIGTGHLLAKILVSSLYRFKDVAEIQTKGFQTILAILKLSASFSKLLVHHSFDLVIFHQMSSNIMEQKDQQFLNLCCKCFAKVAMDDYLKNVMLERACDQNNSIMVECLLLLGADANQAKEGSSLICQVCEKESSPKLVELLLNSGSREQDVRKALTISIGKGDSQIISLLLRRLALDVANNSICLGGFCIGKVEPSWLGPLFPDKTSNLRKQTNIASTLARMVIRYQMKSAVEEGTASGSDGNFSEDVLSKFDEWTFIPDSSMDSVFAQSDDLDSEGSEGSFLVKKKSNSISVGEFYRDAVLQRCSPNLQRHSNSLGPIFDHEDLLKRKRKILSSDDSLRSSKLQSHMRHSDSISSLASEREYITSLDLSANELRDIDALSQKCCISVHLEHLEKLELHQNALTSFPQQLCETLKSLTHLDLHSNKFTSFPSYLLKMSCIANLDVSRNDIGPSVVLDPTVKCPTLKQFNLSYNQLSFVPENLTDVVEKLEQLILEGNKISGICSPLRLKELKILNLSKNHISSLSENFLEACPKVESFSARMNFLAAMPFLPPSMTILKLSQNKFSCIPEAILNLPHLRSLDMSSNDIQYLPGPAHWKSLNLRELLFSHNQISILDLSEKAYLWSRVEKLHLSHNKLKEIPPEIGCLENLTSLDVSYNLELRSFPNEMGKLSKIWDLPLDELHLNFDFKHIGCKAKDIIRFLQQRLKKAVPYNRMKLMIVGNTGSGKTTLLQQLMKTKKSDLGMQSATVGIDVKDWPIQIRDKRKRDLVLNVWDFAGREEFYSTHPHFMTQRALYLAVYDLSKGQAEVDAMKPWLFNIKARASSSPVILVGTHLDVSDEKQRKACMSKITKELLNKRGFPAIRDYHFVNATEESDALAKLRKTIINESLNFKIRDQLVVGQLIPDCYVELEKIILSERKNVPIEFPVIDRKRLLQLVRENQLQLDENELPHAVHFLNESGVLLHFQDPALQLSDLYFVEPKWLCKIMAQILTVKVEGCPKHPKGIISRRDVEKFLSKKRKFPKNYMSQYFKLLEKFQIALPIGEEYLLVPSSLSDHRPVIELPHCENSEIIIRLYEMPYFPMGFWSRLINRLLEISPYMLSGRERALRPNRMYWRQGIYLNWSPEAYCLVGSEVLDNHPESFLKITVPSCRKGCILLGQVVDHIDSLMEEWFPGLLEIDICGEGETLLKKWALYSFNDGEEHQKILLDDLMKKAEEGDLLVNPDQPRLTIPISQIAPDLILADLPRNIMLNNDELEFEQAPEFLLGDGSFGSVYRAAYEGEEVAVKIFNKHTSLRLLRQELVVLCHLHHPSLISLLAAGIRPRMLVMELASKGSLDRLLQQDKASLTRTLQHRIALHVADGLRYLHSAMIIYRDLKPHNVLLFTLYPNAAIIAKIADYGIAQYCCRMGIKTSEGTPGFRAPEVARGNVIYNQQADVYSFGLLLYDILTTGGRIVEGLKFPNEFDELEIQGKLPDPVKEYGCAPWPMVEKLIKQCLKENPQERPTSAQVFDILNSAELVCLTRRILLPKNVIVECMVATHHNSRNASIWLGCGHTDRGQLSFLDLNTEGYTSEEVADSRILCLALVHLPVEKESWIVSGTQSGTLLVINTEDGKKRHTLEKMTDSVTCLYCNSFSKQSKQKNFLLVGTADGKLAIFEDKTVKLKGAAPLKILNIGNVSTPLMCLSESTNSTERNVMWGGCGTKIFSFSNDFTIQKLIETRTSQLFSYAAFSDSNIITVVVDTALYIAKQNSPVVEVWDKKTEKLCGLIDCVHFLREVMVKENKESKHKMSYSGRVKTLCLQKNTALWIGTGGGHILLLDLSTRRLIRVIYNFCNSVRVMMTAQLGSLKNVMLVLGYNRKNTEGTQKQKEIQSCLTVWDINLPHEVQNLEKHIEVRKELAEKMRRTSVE

## CN(C(=O)CN1CCOCC1)c1ccc2sc3c(-c4cccc5c(=O)cc(N6CC7CCC(C6)O7)oc45)cccc3c2c1 [NU5455]
  inhibition at 1 µM: 1.7%
